Data from US20260234129A1, “NOVEL IMIDAZOLE DERIVATIVE AND USE THEREOF” (PELEMED CO., LTD., priority 2023, published 2026).

Assays:
FLT3 = molecular target: T1, FLT3 (Homo sapiens, UniProt P36888); assay: ADP-Glo kinase assay FLT3 WT; type: biochemical; conditions: recombinant FLT3, 120 minutes at room temperature, read-out: Enzyme (IC50) FLT3 WT
T1 construct: Recombinant proteins containing FLT3 and FLT3(D835Y) domains were purchased from Promega; purchased Promega V4064
T1 sequence (P36888 610-943 limits assumed): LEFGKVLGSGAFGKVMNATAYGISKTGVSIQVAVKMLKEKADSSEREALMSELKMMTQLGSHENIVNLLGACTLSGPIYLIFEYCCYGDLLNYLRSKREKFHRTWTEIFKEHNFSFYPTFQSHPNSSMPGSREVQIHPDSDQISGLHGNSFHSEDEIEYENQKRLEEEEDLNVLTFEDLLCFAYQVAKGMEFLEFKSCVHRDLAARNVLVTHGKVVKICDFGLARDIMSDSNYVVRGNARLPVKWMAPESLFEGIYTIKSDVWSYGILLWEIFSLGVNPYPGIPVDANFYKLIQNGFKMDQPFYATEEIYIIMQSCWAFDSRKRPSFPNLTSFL
Description: FLT3 activity inhibition was measured using the ADP-Glo kinase assay method (Promega, cat #V9101). The ADP-Glo kinase assay method is a luminescent ADP detection assay method that provides a homogeneous, high-throughput screening method for measuring kinase activity by quantifying the amount of ADP produced during the kinase reaction.
The assay was performed in two steps. First, after the kinase reaction, an equal volume of ADP-Glo™ reagent was added to terminate the kinase reaction and deplete any remaining ATP. Second, a kinase detection reagent was added to convert ADP to ATP, and simultaneously the newly synthesized ATP was measured via the luciferase/luciferin reaction. The light produced was measured using a luminometer.
Recombinant proteins containing FLT3 and FLT3(D835Y) domains were purchased from Promega (cat #V4064, cat #V4514), respectively. According to the manufacturer's instructions, the optimal enzyme, ATP, and substrate concentrations were optimized using the ADP-Glo™ kinase assay method (Promega, USA). […] Thereafter, ADP-Glo™ reagent (5 μl) was added and reacted for an additional 40 minutes at room temperature. Finally, the detection reagent (kinase detection reagent, 10 μl) was added, followed by reaction at room temperature for 30 minutes, and the phosphorylation of the substrate peptide was measured by detecting the luciferase signal (integration time 0.5~1 sec) using a SpectraMax ID5 reader (Molecular Devices LLC., San Jose, CA, USA).

[1] = tested on: MV4-11 cells (FLT3-ITD-expressing AML cell line); assay: Cell proliferation inhibition, Alamar Blue; type: cell-based, human; conditions: Homo sapiens, MV4-11, 72 hours of compound treatment, read-out: Cellular (GI50) MV4-11
Description: (§1) The cell proliferation inhibition experiment on acute myeloid leukemia (AML) cell lines was performed using FL3-ITD-expressing AML cell line MV4-11, BaF3-ITD-FLT3 F691L cell line, and BaF3-ITD-FLT3 D835Y cell line to test FLT3 inhibitory activity. All cell lines were human-derived cell lines, and the sources and culture conditions for each cell line are as follows.
(§2) Cell viability was assessed by a resazurin redox-based assay using the Alamar Blue Assay kit (Invitrogen, USA). Specifically, MV4-11, BaF3-ITD-FLT3-F691L, and BaF3-ITD-FLT3-D835Y cells were plated in 384-well plates at 8,000 cells in 45 μL of medium. As a negative control, dimethyl sulfoxide (DMSO) was added together with the compound. After three days (72 hours) of compound treatment, 5 μL of the Alamar Blue kit reagent was added to each well of the 384-well plates, followed by incubation at 37° C. for 2 hours in a humidified CO2 incubator. After incubation, fluorescence intensity (Flu) was measured at 544 nm and 590 nm using a SpectraMax iD3 Multi Mode Microplate Reader (Molecular Devices, ID3-STD).

[2] = tested on: BaF3-ITD-FLT3 F691L cell line; assay: Cell proliferation inhibition, Alamar Blue; type: cell-based; conditions: 72 hours of compound treatment, read-out: Cellular (GI50) BaF3-ITD-FLT3 F691L
Description: as §1, §2

[3] = tested on: BaF3-ITD-FLT3 D835Y cell line; assay: Cell proliferation inhibition, Alamar Blue; type: cell-based; conditions: 72 hours of compound treatment, read-out: Cellular (GI50) BaF3-ITD-FLT3 D835Y
Description: as §1, §2

## COc1ccc2nc(-c3n[nH]c4ccc(C(=O)NCCCN(C)C)cc34)[nH]c2c1 [Example 11, N-(3-(dimethylamino)propyl)-3-(6-methoxy-1H-benzo[d]imidazol-2-yl)-1H-indazole-5-carboxamide]
FLT3
  IC50: < 10 nM
[1]
  GI50: < 10 nM

## Cc1ccc2nc(-c3n[nH]c4ccc(C(=O)NCCCN(C)C)cc34)[nH]c2c1 [Example 12, N-(3-(dimethylamino)propyl)-3-(6-methyl-1H-benzo[d]imidazol-2-yl)-1H-indazole-5-carboxamide]
FLT3
  IC50: < 10 nM
[1]
  GI50: < 10 nM

## O=C(NCCCC(F)(F)F)c1ccc2[nH]nc(-c3nc4ccc(N5CCCC5)cc4[nH]3)c2c1 [Example 13, 3-(6-(pyrrolidin-1-yl)-1H-benzo[d]imidazol-2-yl)-N-(4,4,4-trifluorobutyl)-1H-indazole-5-carboxamide]
[2]
  GI50: 10 to 100 nM
[3]
  GI50: 10 to 100 nM
[1]
  GI50: 10 to 100 nM

## O=C(NCC1CC(F)(F)C1)c1ccc2[nH]nc(-c3nc4ccc(N5CCCC5)cc4[nH]3)c2c1 [Example 14, N-((3,3-difluorocyclobutyl)methyl)-3-(6-(pyrrolidin-1-yl)-1H-benzo[d]imidazol-2-yl)-1H-indazole-5-carboxamide]
[2]
  GI50: 100 to 1000 nM
[3]
  GI50: 10 to 100 nM
[1]
  GI50: 10 to 100 nM

## NCCCNC(=O)c1ccc2[nH]nc(-c3nc4ccc(CN5CCOCC5)cc4[nH]3)c2c1 [Example 26, N-(3-aminopropyl)-3-(6-(morpholinomethyl)-1H-benzo[d]imidazol-2-yl)-1H-indazole-5-carboxamide]
FLT3
  IC50: < 10 nM
[1]
  GI50: 100 to 1000 nM

## O=C(NCC1CNC1)c1ccc2[nH]nc(-c3nc4ccc(-c5ccoc5)cc4[nH]3)c2c1 [Example 75, N-(azetidin-3-ylmethyl)-3-(6-(furan-3-yl)-1H-benzo[d]imidazol-2-yl)-1H-indazole-5-carboxamide]
[2]
  GI50: 10 to 100 nM
[3]
  GI50: < 10 nM
[1]
  GI50: 10 to 100 nM

## NCCCNC(=O)c1ccc2[nH]nc(-c3ncc(-c4ccc(N5CCOCC5)cc4)[nH]3)c2c1 [Example 90, N-(3-aminopropyl)-3-(5-(4-morpholinophenyl)-1H-imidazol-2-yl)-1H-indazole-5-carboxamide]
[1]
  GI50: 100 to 1000 nM

## NCCCNC(=O)c1ccc2[nH]nc(-c3ncc(-c4cccc(N5CCOCC5)c4)[nH]3)c2c1 [Example 91, N-(3-aminopropyl)-3-(5-(3-morpholinophenyl)-1H-imidazol-2-yl)-1H-indazole-5-carboxamide]
[1]
  GI50: 10 to 100 nM

## NCCCNC(=O)c1ccc2[nH]nc(-c3ncc(-c4cccc(O)c4)[nH]3)c2c1 [Example 92, N-(3-aminopropyl)-3-(5-(3-hydroxyphenyl)-1H-imidazol-2-yl)-1H-indazole-5-carboxamide]
[1]
  GI50: 100 to 1000 nM

## NCCCNC(=O)c1ccc2[nH]nc(-c3ncc(-c4cccc(N)c4)[nH]3)c2c1 [Example 93, 3-(5-(3-aminophenyl)-1H-imidazol-2-yl)-N-(3-aminopropyl)-1H-indazole-5-carboxamide]
[1]
  GI50: 100 to 1000 nM

## CS(=O)(=O)NCCNC(=O)c1ccc2[nH]nc(-c3nc(-c4ccccc4)c[nH]3)c2c1 [Example 94, N-(2-(methylsulfonamido)ethyl)-3-(4-phenyl-1H-imidazol-2-yl)-1H-indazole-5-carboxamide]
[1]
  GI50: > 1000 nM

## CN(C)CCNC(=O)c1ccc2[nH]nc(-c3nc(-c4ccccc4)c[nH]3)c2c1 [Example 95, N-(2-(dimethylamino)ethyl)-3-(4-phenyl-1H-imidazol-2-yl)-1H-indazole-5-carboxamide]
[1]
  GI50: 100 to 1000 nM

## O=C(c1ccc2[nH]nc(-c3nc(-c4ccccc4)c[nH]3)c2c1)N1CCN(c2ccc(F)cc2)CC1 [Example 97, (4-(4-fluorophenyl)piperazin-1-yl)(3-(4-phenyl-1H-imidazol-2-yl)-1H-indazol-5-yl)methanone]
[1]
  GI50: > 1000 nM

## CN1CCN(C(=O)c2ccc3[nH]nc(-c4nc(-c5ccccc5)c[nH]4)c3c2)CC1 [Example 99, (4-methylpiperazin-1-yl)(3-(4-phenyl-1H-imidazol-2-yl)-1H-indazol-5-yl)methanone]
[1]
  GI50: > 1000 nM

## NC1CCN(CCNC(=O)c2ccc3[nH]nc(-c4nc(-c5ccccc5)c[nH]4)c3c2)CC1 [Example 103, N-(2-(4-aminopiperidin-1-yl)ethyl)-3-(4-phenyl-1H-imidazol-2-yl)-1H-indazole-5-carboxamide]
[1]
  GI50: > 1000 nM

## CC(C)n1c(-c2n[nH]c3ccc(C(=O)NCCCN)cc23)nc2ccc(F)cc21 [Example 105, N-(3-aminopropyl)-3-(6-fluoro-1-isopropyl-1H-benzo[d]imidazol-2-yl)-1H-indazole-5-carboxamide]
[1]
  GI50: > 1000 nM

## COCCn1c(-c2n[nH]c3ccc(C(=O)NCCCN)cc23)nc2ccc(F)cc21 [Example 106, N-(3-aminopropyl)-3-(6-fluoro-1-(2-methoxyethyl)-1H-benzo[d]imidazol-2-yl)-1H-indazole-5-carboxamide]
[1]
  GI50: > 1000 nM

## CN(C)CCn1c(-c2n[nH]c3ccc(C(=O)NCCCN)cc23)nc2ccc(F)cc21 [Example 107, N-(3-aminopropyl)-3-(1-(2-(dimethylamino)ethyl)-6-fluoro-1H-benzo[d]imidazol-2-yl)-1H-indazole-5-carboxamide]
[1]
  GI50: > 1000 nM

## CN1CCN(CCn2c(-c3n[nH]c4ccc(C(=O)NCCCN)cc34)nc3ccc(F)cc32)CC1 [Example 108, N-(3-aminopropyl)-3-(6-fluoro-1-(2-(4-methylpiperazin-1-yl)ethyl)-1H-benzo[d]imidazol-2-yl)-1H-indazole-5-carboxamide]
[1]
  GI50: > 1000 nM

## NCCCNC(=O)c1ccc2[nH]nc(-c3nc4ccc(F)cc4n3CCO)c2c1 [Example 109, N-(3-aminopropyl)-3-(6-fluoro-1-(2-hydroxyethyl)-1H-benzo[d]imidazol-2-yl)-1H-indazole-5-carboxamide]
[1]
  GI50: > 1000 nM

## NCCCNC(=O)c1ccc2c(-c3nc4ccc(F)cc4[nH]3)n[nH]c2c1 [Example 110, N-(3-aminopropyl)-3-(6-fluoro-1H-benzo[d]imidazol-2-yl)-1H-indazole-6-carboxamide]
[1]
  GI50: > 1000 nM

## O=C(NCCCO)c1ccc2[nH]nc(-c3nc4ccc(F)cc4[nH]3)c2c1 [Example 111, 3-(6-fluoro-1H-benzo[d]imidazol-2-yl)-N-(3-hydroxypropyl)-1H-indazole-5-carboxamide]
[1]
  GI50: 100 to 1000 nM

## NCCN1CCC(NC(=O)c2ccc3[nH]nc(-c4nc5ccccc5[nH]4)c3c2)CC1 [Example 112, N-(1-(2-aminoethyl)piperidin-4-yl)-3-(1H-benzo[d]imidazol-2-yl)-1H-indazole-5-carboxamide]
[1]
  GI50: 10 to 100 nM

## NCCCNC(=O)c1ccc2[nH]nc(-c3nc(C(N)=O)c(-c4ccccc4)[nH]3)c2c1 [Example 113, N-(3-aminopropyl)-3-(4-carbamoyl-5-phenyl-1H-imidazol-2-yl)-1H-indazole-5-carboxamide]
[1]
  GI50: 100 to 1000 nM

## COCc1cnc(-c2n[nH]c3ccc(C(=O)NCCCN)cc23)[nH]1 [Example 114, N-(3-aminopropyl)-3-(5-(methoxymethyl)-1H-imidazol-2-yl)-1H-indazole-5-carboxamide]
[1]
  GI50: > 1000 nM

## NCCCNC(=O)c1ccc2[nH]nc(-c3ncc(COc4ccccc4)[nH]3)c2c1 [Example 115, N-(3-aminopropyl)-3-(5-(phenoxymethyl)-1H-imidazol-2-yl)-1H-indazole-5-carboxamide]
[1]
  GI50: > 1000 nM
